Data set [1] concerns the target Luciferin 4-monooxygenase (Photinus pyralis, UniProt P08659). The data set is described as follows: Effect on firefly luciferase activity expressed in human HepG2 cells at low concentration after 5 hrs by luminescence assay. It is filed as ADME, cell-based. The note with it: hepg2, 5 h.
Data set [2] has as its target T1, Nuclear factor erythroid 2-related factor 2 (Homo sapiens) (UniProt Q16236).
T1 sequence (whole entry): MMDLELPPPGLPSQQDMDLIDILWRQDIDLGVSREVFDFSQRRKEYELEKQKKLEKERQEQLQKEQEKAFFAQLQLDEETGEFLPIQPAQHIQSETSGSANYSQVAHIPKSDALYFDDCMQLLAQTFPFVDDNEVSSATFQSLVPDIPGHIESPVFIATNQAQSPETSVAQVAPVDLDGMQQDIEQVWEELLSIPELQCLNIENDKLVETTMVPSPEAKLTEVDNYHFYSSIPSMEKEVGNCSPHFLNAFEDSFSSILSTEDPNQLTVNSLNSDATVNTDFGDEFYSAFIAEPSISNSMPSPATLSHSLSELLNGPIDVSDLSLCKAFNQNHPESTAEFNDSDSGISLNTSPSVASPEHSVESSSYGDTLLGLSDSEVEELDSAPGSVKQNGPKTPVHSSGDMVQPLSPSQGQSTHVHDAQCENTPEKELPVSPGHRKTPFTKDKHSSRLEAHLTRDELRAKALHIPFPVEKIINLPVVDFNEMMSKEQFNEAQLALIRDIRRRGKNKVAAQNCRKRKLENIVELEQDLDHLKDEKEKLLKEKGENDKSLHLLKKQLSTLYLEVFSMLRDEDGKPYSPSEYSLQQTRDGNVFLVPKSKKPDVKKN
The data set is described as follows: Activation of Nrf2 (unknown origin) expressed in human HepG2 cells at 15 uM after 5 hrs by ARE-driven luciferase reporter gene assay relative to control. The class given is cell-based. A general note: In a reporter assay the amount or activity of a reporter protein is the signal.

Data on 69 compounds can be found in ChEMBL document CHEMBL4138237, “Activation of anti-oxidant Nrf2 signaling by enone analogues of curcumin” (Eur J Med Chem, 2018).

Calls of active or inactive are those of the source.

Luciferin 4-monooxygenase, sequence (P08659 whole entry): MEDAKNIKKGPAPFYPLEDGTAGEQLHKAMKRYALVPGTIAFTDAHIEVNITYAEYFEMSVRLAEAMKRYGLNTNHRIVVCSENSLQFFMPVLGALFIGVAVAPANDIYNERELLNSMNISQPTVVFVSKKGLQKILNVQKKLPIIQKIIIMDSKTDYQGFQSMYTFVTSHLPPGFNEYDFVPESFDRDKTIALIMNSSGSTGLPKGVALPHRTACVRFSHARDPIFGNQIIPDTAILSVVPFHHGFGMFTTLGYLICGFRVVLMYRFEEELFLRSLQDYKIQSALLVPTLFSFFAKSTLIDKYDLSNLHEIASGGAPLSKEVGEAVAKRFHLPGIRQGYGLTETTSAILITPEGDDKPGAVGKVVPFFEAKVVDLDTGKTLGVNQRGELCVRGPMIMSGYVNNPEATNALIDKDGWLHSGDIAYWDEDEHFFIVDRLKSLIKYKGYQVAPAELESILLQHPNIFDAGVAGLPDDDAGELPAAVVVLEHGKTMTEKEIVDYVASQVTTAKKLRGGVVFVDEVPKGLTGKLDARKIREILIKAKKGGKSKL

In the case of `COc1ccc(/C=C2\CCC/C(=C\c3ccc(OC)cc3)C2=O)cc1`, the Activity entry in data set [1] is “Non-Toxic”. In addition, in data set [2], the outcome was inactive.
In the case of `O=C(/C=C/c1cccc([N+](=O)[O-])c1)CC(=O)/C=C/c1cccc([N+](=O)[O-])c1`, the Activity result in data set [1] is given as “Non-Toxic”. Also, the result in data set [2] was inactive.
`COc1cc(CCC(=O)C(Cc2ccccc2)C(=O)CCc2ccc(O)c(OC)c2)ccc1O`: the Activity result in data set [1] was “Non-Toxic”.
`O=C(/C=C/c1cccc(Cl)c1)/C=C/c1cccc(Cl)c1`: the Activity entry in data set [1] is on record as “Non-Toxic”. For the same compound, in data set [2], the result was inactive.
For the compound `C/C(C(=O)/C=C/c1ccccc1)=C(O)\C=C\c1ccccc1`, the Activity entry in data set [1] is “Non-Toxic”.
The same measure, in the same setting: with `CC(C(=O)CCc1ccccc1)C(=O)CCc1ccccc1` the entry was “Non-Toxic”.
As to `O=C(/C=C/c1ccccc1C(F)(F)F)/C=C/c1ccccc1C(F)(F)F`, the Activity result in data set [1] is recorded as “Non-Toxic”. In addition, in data set [2], the outcome was inactive.
As for `COc1ccc(/C=C2\CCC/C(=C\c3ccc(OC)c(OC)c3OC)C2=O)c(OC)c1OC`, in data set [1], the Activity entry is “Non-Toxic”.
As to `O=C(/C=C/c1c(Cl)cccc1Cl)/C=C/c1c(Cl)cccc1Cl`, in data set [1], the Activity result is “Non-Toxic”. Moreover, the outcome in data set [2] was inactive.
Regarding `COc1cccc(/C=C2\CCC/C(=C\c3cccc(OC)c3)C2=O)c1`, the Activity result in data set [1] is listed as “Non-Toxic”. In data set [2], the result was Active.
As for `CN(C)c1ccc(/C=C/C(=O)/C=C/c2ccc(N(C)C)cc2)cc1`, the Activity result in data set [1] is recorded as “Non-Toxic”. Moreover, in data set [2], the result was inactive.
For `COc1ccc(/C=C2\CN(C)C/C(=C\c3ccc(OC)cc3)C2=O)cc1`, the Activity result in data set [1] is listed as “Non-Toxic”.
Regarding `COc1cc(/C=C2\CCC/C(=C\c3ccc(O)c(OC)c3)C2=O)ccc1O` [CYCLOVALONE], the Activity entry in data set [1] is “Non-Toxic”.
Take `O=C1/C(=C/c2cccc(F)c2)CCC/C1=C\c1cccc(F)c1`: the Activity entry in data set [1] was “Non-Toxic”.
`CN1C/C(=C\c2cccc(C(F)(F)F)c2)C(=O)/C(=C/c2cccc(C(F)(F)F)c2)C1`: the Activity entry in data set [1] is given as “Non-Toxic”. Besides, the result in data set [2] was Active.
Regarding `COc1ccc(/C=C/C(=O)CC(=O)/C=C/c2ccc(OC)cc2)cc1`, the Activity entry in data set [1] is listed as “Non-Toxic”. Besides, in data set [2], the outcome was Active.
For the compound `CCc1c(/C=C/C(=O)/C=C/c2ccc(OC)c(OC)c2CC)ccc(OC)c1OC`, the Activity entry in data set [1] was “Non-Toxic”. Further, the result in data set [2] was Active.
As to `COc1cccc(/C=C/C(=O)CC(=O)/C=C/c2cccc(OC)c2)c1`, the Activity result in data set [1] is “Non-Toxic”. The outcome in data set [2] was Active.
The corresponding values for `O=C(/C=C/c1ccc(Br)cc1)/C=C/c1ccc(Br)cc1` are “Non-Toxic” and “inactive”.
Turning to `COc1ccc(OC)c(/C=C/C(=O)CC(=O)/C=C/c2cc(OC)ccc2OC)c1`, the Activity result in data set [1] is recorded as “Non-Toxic”. Moreover, in data set [2], the outcome was Active.
Turning to `COc1ccc(/C=C/C(=O)CC(=O)/C=C/c2ccc(OC)c(OC)c2)cc1OC` [TETRAMETHOXYCURCUMIN], the Activity entry in data set [1] is “Non-Toxic”.
As to `COc1cc(/C=C/C(=O)/C=C/c2ccccc2)ccc1O`, in data set [1], the Activity result is on record as “Non-Toxic”.
Turning to `COc1ccc(/C=C2\CN(C)C/C(=C\c3ccc(OC)cc3OC)C2=O)c(OC)c1`, the Activity entry in data set [1] was “Non-Toxic”.
For the compound `O=C(/C=C/c1ccccc1)/C=C/c1ccccc1`, the Activity entry in data set [1] is “Non-Toxic”. Also, in data set [2], the result was Active.
`COc1ccccc1/C=C/C(=O)/C=C/c1ccccc1OC`: the Activity result in data set [1] was “Non-Toxic”.
The same measure, in the same setting: with `COc1ccc(/C=C/C(C)=O)cc1` the entry was “Non-Toxic”; with `O=C(/C=C(\O)c1ccccc1)c1ccccc1`, “Non-Toxic”.
Regarding `O=C(/C=C/c1ccc(Br)cc1)CC(=O)/C=C/c1ccc(Br)cc1`, in data set [1], the Activity entry is “Non-Toxic”. In addition, the outcome in data set [2] was inactive.
For `Cc1ccc(/C=C/C(=O)CC(=O)/C=C/c2ccc(C)cc2)cc1`, the Activity entry in data set [1] is listed as “Non-Toxic”. Moreover, the result in data set [2] was inactive.
Turning to `O=C(/C=C/c1ccccc1)c1ccccc1` [CHALCONE], the Activity result in data set [1] is listed as “Non-Toxic”. For the same compound, the result in data set [2] was Active.
`COc1ccc(/C=C2\CCC/C(=C\c3ccc(OC)cc3OC)C2=O)c(OC)c1`: in data set [1], the Activity result is given as “Non-Toxic”. In addition, the result in data set [2] was inactive.
On to `CC(C)c1ccc(/C=C2\CN(C)C/C(=C\c3ccc(C(C)C)cc3)C2=O)cc1`, for which the Activity entry in data set [1] is recorded as “Non-Toxic”. For the same compound, the outcome in data set [2] was Active.
Regarding `COc1cc(/C=C/C(=O)CC(=O)/C=C/c2ccc(O)c(OC)c2)ccc1O` [CURCUMIN], in data set [1], the Activity entry is on record as “Non-Toxic”. Besides, the fold change (FC) in data set [2] was 22.6.
Consider `COc1ccc(/C=C/C(=O)/C=C/c2ccccc2)cc1`, for which the Activity result in data set [1] is “Non-Toxic”.
Take `COc1cc(/C=C/C(=O)CC(=O)/C=C/c2cc(OC)cc(OC)c2)cc(OC)c1`: in data set [1], the Activity entry was “Non-Toxic”. Further, in data set [2], the result was Active.
Taken in the same sequence, the figures for `O=C1/C(=C/c2c(Cl)cccc2Cl)CCC/C1=C\c1c(Cl)cccc1Cl` were “Non-Toxic” and “Active”.
On to `COc1cc(/C=C/C(=O)c2ccc(O)c(OC)c2)ccc1O`, for which the Activity result in data set [1] was “Non-Toxic”. The outcome in data set [2] was Active.
Turning to `O=C(/C=C/c1ccccc1O)/C=C/c1ccccc1O`, the Activity result in data set [1] is on record as “Non-Toxic”. In data set [2], this compound yielded a fold change (FC) of 18.5.
Turning to `COc1cccc(/C=C/C(=O)CC(=O)/C=C/c2cccc(OC)c2OC)c1OC`, the Activity entry in data set [1] is “Non-Toxic”.
On to `COc1cc(C(=O)/C=C/c2ccccc2)ccc1O`, for which, in data set [1], the Activity result is listed as “Non-Toxic”. In addition, in data set [2], the result was Active.
Consider `COc1cccc(OC)c1/C=C/C(=O)/C=C/c1c(OC)cccc1OC`, for which, in data set [1], the Activity result is “Non-Toxic”.
`COc1cc(/C=C2\CCC/C(=C\c3cc(OC)c(OC)c(OC)c3)C2=O)cc(OC)c1OC`: the Activity result in data set [1] is “Non-Toxic”.
On to `CSc1ccc(/C=C2\CN(C)C/C(=C\c3ccc(SC)cc3)C2=O)cc1`, for which the Activity entry in data set [1] is “Non-Toxic”.
The same measure, in the same setting: the same measure for `COc1cccc(/C=C2\CN(C)C/C(=C\c3cccc(OC)c3OC)C2=O)c1OC`: “Non-Toxic”; for `COc1cccc(/C=C2\CCC/C(=C\c3cccc(OC)c3OC)C2=O)c1OC`: “Non-Toxic”; for `O=C1/C(=C/c2cccc(O)c2)CCC/C1=C\c1cccc(O)c1`: “Non-Toxic”.
In the case of `O=C(/C=C/c1ccc(Cl)cc1)CC(=O)/C=C/c1ccc(Cl)cc1`, the Activity entry in data set [1] was “Non-Toxic”. For the same compound, the outcome in data set [2] was inactive.
With `CN1C/C(=C\c2cccc(Br)c2)C(=O)/C(=C/c2cccc(Br)c2)C1`, the Activity result in data set [1] is “Non-Toxic”. In data set [2], the result was Active.
Consider `COc1ccc(/C=C2\CCC/C(=C\c3ccc(OC)c(OC)c3)C2=O)cc1OC`, for which the Activity result in data set [1] is given as “Non-Toxic”.
Same read-out and setting: the same measure for `O=C1/C(=C/c2ccc(Br)cc2)CCC/C1=C\c1ccc(Br)cc1`: “Non-Toxic”.
On the same count and under the same terms, with `N#Cc1ccc(C(=O)/C=C/c2ccccc2)cc1` the entry was “Non-Toxic”; with `COc1cc(/C=C/C(=O)/C=C/c2ccc(OC(C)=O)c(OC)c2)ccc1OC(C)=O`, “Non-Toxic”; with `COc1cc(/C=C2\CN(C)C/C(=C\c3cc(OC)cc(OC)c3)C2=O)cc(OC)c1`, “Non-Toxic”.
For the compound `COc1ccccc1/C=C/C(=O)CC(=O)/C=C/c1ccccc1OC`, the Activity result in data set [1] is on record as “Non-Toxic”.
The same measure, in the same setting: with `O=C(/C=C/c1cccc(O)c1)/C=C/c1cccc(O)c1` the entry was “Non-Toxic”.
On the same count and under the same terms, with `O=C(O)c1ccc(C(=O)/C=C/c2ccccc2)cc1` the entry was “Non-Toxic”; with `COc1ccc(/C=C/C(=O)/C=C/c2ccc(OC)c(O)c2)cc1O`, “Non-Toxic”; with `COc1ccc(/C=C/C(=O)/C=C/c2ccc(OC)cc2OC)c(OC)c1`, “Non-Toxic”.
Regarding `CCOc1ccc(/C=C2\CN(C)C/C(=C\c3ccc(OCC)cc3)C2=O)cc1`, the Activity entry in data set [1] was “Non-Toxic”.
Take `O=C(/C=C/c1ccccc1)/C(Cc1ccccc1)=C(O)/C=C/c1ccccc1`: the Activity entry in data set [1] is reported as “Non-Toxic”.
As for `COc1cccc(/C=C/C(=O)/C=C/c2cccc(OC)c2OC)c1OC`, the Activity entry in data set [1] is “Non-Toxic”.
Regarding `COc1cccc(/C=C2\CN(C)C/C(=C\c3cccc(OC)c3)C2=O)c1`, the Activity entry in data set [1] is given as “Non-Toxic”.
On to `COc1cc(/C=C/C(=O)/C=C/c2cc(OC)cc(OC)c2)cc(OC)c1`, for which the Activity entry in data set [1] is reported as “Non-Toxic”.
For the compound `CC(=O)/C=C/c1ccccc1O`, in data set [1], the Activity entry was “Non-Toxic”.
Consider `CC(=O)Oc1ccc(/C=C/C(=O)/C=C/c2ccc(OC(C)=O)cc2)cc1`, for which the Activity entry in data set [1] is “Non-Toxic”.
On the same count and under the same terms, with `COc1ccc(OC)c(/C=C2\CCC/C(=C\c3cc(OC)ccc3OC)C2=O)c1` the entry was “Non-Toxic”.
Turning to `COc1ccc(/C=C/C(=O)/C=C/c2ccc(OC)c(OC)c2)cc1OC`, the Activity result in data set [1] is “Non-Toxic”.
With `O=C(CCc1ccccc1)C(Cc1ccccc1)C(=O)CCc1ccccc1`, the Activity result in data set [1] was “Non-Toxic”.
On the same count and under the same terms, the same measure for `COc1ccc(/C=C2\CN(C)C/C(=C\c3ccc(OC)c(OC)c3OC)C2=O)c(OC)c1OC`: “Non-Toxic”.
